Experimental data reported in patent US7439418B2, “Anti-microbial peptide known as halocyntin, gene coding for said peptide, vector, transformed organism and composition containing said peptide” (Centre National de la Recherche Scientifique - CNRS, priority 2003, dated 2008).
Where no end group is shown, it is not given here.

Columns and labels:
Type in all cases: cell-based
E. faecalis = test: Minimal bactericidal concentration (MBC); conditions: Mueller Hinton, 18 hours of incubation
Protocol: (§1) The minimal bactericidal concentration (MBC) for each bacterial strain tested was determined as follows: The peptide was placed in a solution containing 0.01% acetic acid and 0.2% bovine serum albumin (BSA), then, serial dilutions of 2 in 2 are realized in the same 0.01% solution of acetic acid and 0.2% BSA. 10 μl of each dilution are incubated in sterile 96-well plates (Becton Dickinson, USA, ref: 18572) in the presence of 100 μl of a bacterial suspension brought to an optical density of 0.001 at 600 nm in the Mueller Hinton environment (MHB, SIGMA, ref: M-9677).
(§2) The bacterial growth is monitored after 18 hours of incubation under agitation. The MBC is determined by spreading out the content of the first three wells in which no bacterial growth was observed. This spreading out was carried out on Petri dishes on which an agar was poured prepared from the Mueller Hinton environment. These dishes were then incubated 18 hours. The MBC corresponds to the lowest concentration of peptide for which no bacterial colony was observed on the incubated dishes.

B. megaterium = test: Minimal bactericidal concentration (MBC); conditions: Mueller Hinton, 18 hours of incubation
Protocol: as §1, §2

M. luteus = test: Minimal bactericidal concentration (MBC); conditions: Mueller Hinton, 18 hours of incubation
Protocol: as §1, §2

P. aeruginosa = test: Minimal bactericidal concentration (MBC); conditions: Mueller Hinton, 18 hours of incubation
Protocol: as §1, §2

E. coli DH5α = test: Minimal bactericidal concentration (MBC); conditions: Mueller Hinton, 18 hours of incubation
Protocol: as §1, §2

E. aerogenes = test: Minimal bactericidal concentration (MBC); conditions: Mueller Hinton, 18 hours of incubation
Protocol: as §1, §2

N. gonorrhoeae = test: Minimal bactericidal concentration (MBC); conditions: Mueller Hinton, 18 hours of incubation
Protocol: as §1, §2

S. aureus = test: Minimal bactericidal concentration (MBC); conditions: Mueller Hinton, 18 hours of incubation
Protocol: as §1, §2

K. pneumoniae = test: Minimal bactericidal concentration (MBC); conditions: Mueller Hinton, 18 hours of incubation
Protocol: as §1, §2

S. typhimutium = test: Minimal bactericidal concentration (MBC); conditions: Mueller Hinton, 18 hours of incubation
Protocol: as §1, §2

A. viridans = test: Minimal bactericidal concentration (MBC); conditions: Mueller Hinton, 18 hours of incubation
Protocol: as §1, §2

sheep erythrocytes = test: Hemolytic activity on sheep erythrocytes
Protocol: A known quantity of peptide was placed in a solution containing […] acetic acid and 0.2% bovine serum albumin (BSA) in such a manner as to obtain a stock solution with a concentration of […]; then, serial dilutions of this solution were realized in the same solution of 0.01% acetic acid and 0.2% BSA (AA-BSA). […] of each of these solutions or […] of a 10% Triton X-100 solution in PBS (control—peptide) were then added to 180 μl of a solution containing 2.5% (volume/volume) of the suspension of sheep erythrocytes in PBS. The mixture was then incubated 30 minutes at 37° C. then submitted to a centrifugation that 10000 g for 3 minutes. Finally, the supernatant was recovered and its absorbance measured at 600 nm. The percentage of hemolysis is then calculated with the following equation: % hemolysis=(A600 of the sample−A600 of control-peptide)/(A600 control 100% hemolysis−A600 control-peptide)×100.

## FWGHIWNAVKRVGANALHGAVTGALS [halocyntin]
E. faecalis
  MBC: 6.25 to 12.5 µM
B. megaterium
  MBC: 0.75 to 1.56 µM
M. luteus
  MBC: 1.56 to 3.13 µM
P. aeruginosa
  MBC: >100 µM
E. coli DH5α
  MBC: 6.25 to 12.5 µM
E. aerogenes
  MBC: 25 to 50 µM
N. gonorrhoeae
  MBC: 25 to 50 µM
S. aureus
  MBC: 6.25 to 12.5 µM
K. pneumoniae
  MBC: 12.5 to 25 µM
S. typhimutium
  MBC: 50 to 100 µM
A. viridans
  MBC: 3.13 to 6.25 µM
Sheep erythrocytes; beyond 12.5 mM
  hemolytic activity: very faint hemolytic activity
Sheep erythrocytes; concentration of 50 μM, 30 minutes at 37° C.
  hemolytic activity: 5.8%
Sheep erythrocytes; up to concentrations of 12.5 mM
  hemolytic activity: does not show any hemolytic activity
